#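 Cells were grown in 96-well plates and exposed to each compound for 48 hours at five concentrations; endpoints were interpolated linearly between bracketing concentrations, or set to the highest concentration if not reached. TGI is the concentration that stops growth completely.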
# Assays:
# Experiment in all cases: NCI tumour cell line growth inhibition, 48 h
# OVCAR-5 ovarian = system: OVCAR-5 ovarian
# TK-10 renal = system: TK-10 renal
# MOLT-4 leukemia = system: MOLT-4 leukemia
# HT29 colon = system: HT29 colon
# NCI-H23 lung = system: NCI-H23 lung
# BT-549 breast = system: BT-549 breast
# CCRF-CEM leukemia = system: CCRF-CEM leukemia
# SF-295 CNS = system: SF-295 CNS
# OVCAR-3 ovarian = system: OVCAR-3 ovarian
# HCC-2998 colon = system: HCC-2998 colon
# SK-MEL-2 melanoma = system: SK-MEL-2 melanoma
# MDA-N = system: MDA-N
# UO-31 renal = system: UO-31 renal
# NCI-H460 lung = system: NCI-H460 lung
# MDA-MB-231 breast = system: MDA-MB-231 breast
# SK-OV-3 ovarian = system: SK-OV-3 ovarian
# HCT-15 colon = system: HCT-15 colon
# T-47D breast = system: T-47D breast
# OVCAR-4 ovarian = system: OVCAR-4 ovarian
# MDA-MB-435 = system: MDA-MB-435
# 786-0 renal = system: 786-0 renal
# SF-539 CNS = system: SF-539 CNS
# M14 melanoma = system: M14 melanoma
# EKVX NSCLC = system: EKVX NSCLC
# NCI-H226 lung = system: NCI-H226 lung
# K-562 leukemia = system: K-562 leukemia
# HCT-116 colon = system: HCT-116 colon
# IGROV1 ovarian = system: IGROV1 ovarian
# DU-145 prostate = system: DU-145 prostate
# MALME-3M melanoma = system: MALME-3M melanoma
# ACHN renal = system: ACHN renal
# HOP-92 NSCLC = system: HOP-92 NSCLC
# HS 578T breast = system: HS 578T breast
# UACC-257 melanoma = system: UACC-257 melanoma
# SR leukemia = system: SR leukemia
# KM12 colon = system: KM12 colon
# A549 NSCLC = system: A549 NSCLC
# OVCAR-8 ovarian = system: OVCAR-8 ovarian
# U251 CNS = system: U251 CNS
# SN12C renal = system: SN12C renal
# HL-60(TB) leukemia = system: HL-60(TB) leukemia
# SF-268 CNS = system: SF-268 CNS
# SNB-19 CNS = system: SNB-19 CNS
# NCI-H522 lung = system: NCI-H522 lung
# UACC-62 melanoma = system: UACC-62 melanoma
# LOX IMVI melanoma = system: LOX IMVI melanoma
# HOP-62 NSCLC = system: HOP-62 NSCLC
# RPMI-8226 leukemia = system: RPMI-8226 leukemia
# SK-MEL-28 melanoma = system: SK-MEL-28 melanoma
# SW-620 colon = system: SW-620 colon
# COLO 205 colon = system: COLO 205 colon
# PC-3 prostate = system: PC-3 prostate
# SNB-75 CNS = system: SNB-75 CNS
# MCF7 breast = system: MCF7 breast
# NCI/ADR-RES ovarian = system: NCI/ADR-RES ovarian
# SK-MEL-5 melanoma = system: SK-MEL-5 melanoma
# A498 renal = system: A498 renal
# CAKI-1 renal = system: CAKI-1 renal
# RXF 393 renal = system: RXF 393 renal
smiles,measurement,setting,value
CCOC(=O)c1cc(-c2ccc(Cl)cc2)c([N+](=O)[O-])n1C,TGI,OVCAR-5 ovarian,> 10 µM
same,TGI,TK-10 renal,> 10 µM
same,TGI,MOLT-4 leukemia,> 10 µM
same,TGI,HT29 colon,> 10 µM
same,TGI,NCI-H23 lung,> 10 µM
same,TGI,BT-549 breast,> 10 µM
same,TGI,CCRF-CEM leukemia,> 10 µM
same,TGI,SF-295 CNS,> 10 µM
same,TGI,OVCAR-3 ovarian,> 10 µM
same,TGI,HCC-2998 colon,> 10 µM
same,TGI,SK-MEL-2 melanoma,> 10 µM
same,TGI,MDA-N,> 10 µM
same,TGI,UO-31 renal,> 10 µM
same,TGI,NCI-H460 lung,> 10 µM
same,TGI,MDA-MB-231 breast,5.8 µM
same,TGI,SK-OV-3 ovarian,> 10 µM
same,TGI,HCT-15 colon,> 10 µM
same,TGI,T-47D breast,6.45 µM
same,TGI,OVCAR-4 ovarian,> 10 µM
same,TGI,MDA-MB-435,> 10 µM
same,TGI,786-0 renal,> 10 µM
same,TGI,SF-539 CNS,> 10 µM
same,TGI,M14 melanoma,> 10 µM
same,TGI,EKVX NSCLC,> 10 µM
same,TGI,NCI-H226 lung,> 10 µM
same,TGI,K-562 leukemia,> 10 µM
same,TGI,HCT-116 colon,> 10 µM
same,TGI,IGROV1 ovarian,> 10 µM
same,TGI,DU-145 prostate,> 10 µM
same,TGI,MALME-3M melanoma,> 10 µM
same,TGI,ACHN renal,> 10 µM
same,TGI,HOP-92 NSCLC,> 10 µM
same,TGI,HS 578T breast,> 10 µM
same,TGI,UACC-257 melanoma,> 10 µM
same,TGI,SR leukemia,> 10 µM
same,TGI,KM12 colon,> 10 µM
same,TGI,A549 NSCLC,> 10 µM
same,TGI,OVCAR-8 ovarian,> 10 µM
same,TGI,U251 CNS,> 10 µM
same,TGI,SN12C renal,> 10 µM
same,TGI,HL-60(TB) leukemia,> 10 µM
same,TGI,SF-268 CNS,> 10 µM
same,TGI,SNB-19 CNS,> 10 µM
same,TGI,NCI-H522 lung,> 10 µM
CCOC(=O)C1(Cc2ccccc2)Cc2ccccc2C1=O (stereo not drawn),TGI,OVCAR-5 ovarian,> 100 µM
same,TGI,TK-10 renal,> 100 µM
same,TGI,MOLT-4 leukemia,57.5 µM
same,TGI,HT29 colon,65.2 µM
same,TGI,NCI-H23 lung,69.9 µM
same,TGI,UACC-62 melanoma,81.7 µM
same,TGI,CCRF-CEM leukemia,95.5 µM
same,TGI,LOX IMVI melanoma,> 100 µM
same,TGI,SF-295 CNS,> 100 µM
same,TGI,OVCAR-3 ovarian,> 100 µM
same,TGI,HCC-2998 colon,> 100 µM
same,TGI,SK-MEL-2 melanoma,30.7 µM
same,TGI,HOP-62 NSCLC,> 100 µM
same,TGI,MDA-N,44.6 µM
same,TGI,UO-31 renal,57.3 µM
same,TGI,NCI-H460 lung,> 100 µM
same,TGI,MDA-MB-231 breast,> 100 µM
same,TGI,RPMI-8226 leukemia,60.8 µM
same,TGI,SK-MEL-28 melanoma,92.5 µM
same,TGI,SK-OV-3 ovarian,> 100 µM
same,TGI,HCT-15 colon,> 100 µM
same,TGI,SW-620 colon,> 100 µM
same,TGI,T-47D breast,88.3 µM
same,TGI,OVCAR-4 ovarian,> 100 µM
same,TGI,MDA-MB-435,45.3 µM
same,TGI,786-0 renal,> 100 µM
same,TGI,SF-539 CNS,96.2 µM
same,TGI,COLO 205 colon,37.7 µM
same,TGI,PC-3 prostate,> 100 µM
same,TGI,M14 melanoma,40.9 µM
same,TGI,EKVX NSCLC,97.8 µM
same,TGI,NCI-H226 lung,58.6 µM
same,TGI,SNB-75 CNS,> 100 µM
same,TGI,K-562 leukemia,> 100 µM
same,TGI,HCT-116 colon,> 100 µM
same,TGI,IGROV1 ovarian,> 100 µM
same,TGI,DU-145 prostate,> 100 µM
same,TGI,MALME-3M melanoma,52.3 µM
same,TGI,ACHN renal,> 100 µM
same,TGI,HOP-92 NSCLC,56 µM
same,TGI,HS 578T breast,> 100 µM
same,TGI,SR leukemia,78.2 µM
same,TGI,MCF7 breast,> 100 µM
same,TGI,KM12 colon,> 100 µM
same,TGI,A549 NSCLC,> 100 µM
same,TGI,NCI/ADR-RES ovarian,62.8 µM
same,TGI,OVCAR-8 ovarian,> 100 µM
same,TGI,U251 CNS,> 100 µM
same,TGI,SN12C renal,> 100 µM
same,TGI,HL-60(TB) leukemia,> 100 µM
same,TGI,SF-268 CNS,> 100 µM
same,TGI,SK-MEL-5 melanoma,28.8 µM
CC(=O)Nc1ccc(-c2nc3ccccc3s2)cc1O,TGI,OVCAR-5 ovarian,93.8 µM
same,TGI,TK-10 renal,> 100 µM
same,TGI,MOLT-4 leukemia,85.6 µM
same,TGI,HT29 colon,> 100 µM
same,TGI,NCI-H23 lung,> 100 µM
same,TGI,UACC-62 melanoma,83.1 µM
same,TGI,CCRF-CEM leukemia,> 100 µM
same,TGI,LOX IMVI melanoma,> 100 µM
same,TGI,SF-295 CNS,> 100 µM
same,TGI,A498 renal,> 100 µM
same,TGI,OVCAR-3 ovarian,> 100 µM
same,TGI,HCC-2998 colon,> 100 µM
same,TGI,SK-MEL-2 melanoma,> 100 µM
same,TGI,HOP-62 NSCLC,> 100 µM
same,TGI,MDA-N,> 100 µM
same,TGI,UO-31 renal,> 100 µM
same,TGI,NCI-H460 lung,> 100 µM
same,TGI,CAKI-1 renal,> 100 µM
same,TGI,MDA-MB-231 breast,> 100 µM
same,TGI,RPMI-8226 leukemia,> 100 µM
same,TGI,SK-MEL-28 melanoma,> 100 µM
same,TGI,HCT-15 colon,> 100 µM
same,TGI,SW-620 colon,> 100 µM
same,TGI,T-47D breast,> 100 µM
same,TGI,OVCAR-4 ovarian,> 100 µM
same,TGI,MDA-MB-435,> 100 µM
same,TGI,786-0 renal,> 100 µM
same,TGI,COLO 205 colon,> 100 µM
same,TGI,PC-3 prostate,> 100 µM
same,TGI,M14 melanoma,> 100 µM
same,TGI,NCI-H226 lung,45.9 µM
same,TGI,SNB-75 CNS,> 100 µM
same,TGI,K-562 leukemia,> 100 µM
same,TGI,HCT-116 colon,> 100 µM
same,TGI,IGROV1 ovarian,57.7 µM
same,TGI,DU-145 prostate,> 100 µM
same,TGI,ACHN renal,> 100 µM
same,TGI,HOP-92 NSCLC,> 100 µM
same,TGI,HS 578T breast,> 100 µM
same,TGI,UACC-257 melanoma,> 100 µM
same,TGI,SR leukemia,> 100 µM
same,TGI,KM12 colon,73 µM
same,TGI,A549 NSCLC,> 100 µM
same,TGI,NCI/ADR-RES ovarian,64.4 µM
same,TGI,OVCAR-8 ovarian,> 100 µM
same,TGI,U251 CNS,> 100 µM
same,TGI,RXF 393 renal,> 100 µM
same,TGI,SN12C renal,> 100 µM
same,TGI,SF-268 CNS,> 100 µM
same,TGI,SNB-19 CNS,> 100 µM
same,TGI,SK-MEL-5 melanoma,62.8 µM
same,TGI,NCI-H522 lung,9.85 µM
CN(C(=O)c1cccs1)C(=S)N1CCN(c2ccccc2)CC1,TGI,OVCAR-5 ovarian,> 100 µM
same,TGI,TK-10 renal,> 100 µM
same,TGI,MOLT-4 leukemia,> 100 µM
same,TGI,HT29 colon,> 100 µM
same,TGI,NCI-H23 lung,> 100 µM
same,TGI,UACC-62 melanoma,> 100 µM
same,TGI,BT-549 breast,> 100 µM
same,TGI,CCRF-CEM leukemia,> 100 µM
same,TGI,LOX IMVI melanoma,> 100 µM
same,TGI,SF-295 CNS,> 100 µM
same,TGI,OVCAR-3 ovarian,> 100 µM
same,TGI,HCC-2998 colon,> 100 µM
same,TGI,SK-MEL-2 melanoma,> 100 µM
same,TGI,MDA-N,> 100 µM
same,TGI,UO-31 renal,> 100 µM
same,TGI,NCI-H460 lung,> 100 µM
same,TGI,MDA-MB-231 breast,> 100 µM
same,TGI,RPMI-8226 leukemia,> 100 µM
same,TGI,SK-MEL-28 melanoma,> 100 µM
same,TGI,HCT-15 colon,> 100 µM
same,TGI,SW-620 colon,> 100 µM
same,TGI,T-47D breast,> 100 µM
same,TGI,OVCAR-4 ovarian,> 100 µM
same,TGI,MDA-MB-435,> 100 µM
same,TGI,786-0 renal,> 100 µM
same,TGI,COLO 205 colon,> 100 µM
same,TGI,M14 melanoma,> 100 µM
same,TGI,NCI-H226 lung,> 100 µM
same,TGI,SNB-75 CNS,> 100 µM
same,TGI,K-562 leukemia,> 100 µM
same,TGI,IGROV1 ovarian,> 100 µM
same,TGI,DU-145 prostate,> 100 µM
same,TGI,MALME-3M melanoma,> 100 µM
same,TGI,ACHN renal,> 100 µM
same,TGI,HOP-92 NSCLC,> 100 µM
same,TGI,HS 578T breast,> 100 µM
same,TGI,UACC-257 melanoma,> 100 µM
same,TGI,SR leukemia,> 100 µM
same,TGI,MCF7 breast,> 100 µM
same,TGI,KM12 colon,> 100 µM
same,TGI,A549 NSCLC,> 100 µM
same,TGI,OVCAR-8 ovarian,> 100 µM
same,TGI,U251 CNS,> 100 µM
same,TGI,RXF 393 renal,> 100 µM
same,TGI,SN12C renal,> 100 µM
same,TGI,HL-60(TB) leukemia,> 100 µM
same,TGI,SF-268 CNS,> 100 µM
same,TGI,SNB-19 CNS,> 100 µM
same,TGI,SK-MEL-5 melanoma,> 100 µM
same,TGI,NCI-H522 lung,> 100 µM

# Reference: PubChem BioAssay (NCI)
